Source: PubChem BioAssay AID200 (DTP/NCI, 2004)
Values joined by “and” are separate entries in the source; they are usually repeats but may differ in a detail not shown here. Equal entries are not always repeated. Toxic doses and inconclusive results are not listed. Where a SMILES comes first, the peptide text is derived from it. [ ]: non-standard residue; d: D form. The star is where a group is joined. Cbz = O=C(OCc1ccccc1)*; Nva = CCC[CH](N)C(=O)O

Tested on: B6C3F1 mice, B16 melanoma ip, median survival T/C
Assay: NCI In Vivo Anticancer Drug Screen. Data for tumor model B16 Melanoma (intraperitoneal) in B6C3F1 mice
Details: endpoint: median survival time, schedule: Q01DX009 (ip), higher = longer survival
Protocol: The antitumor activity of compounds was measured in mice bearing transplantable tumors. Survival or tumor size were measured and the results are expressed as the measurement made in the treated group (T) divided by the measurement made in the vehicle treated control group (C). The tumor model used in this assay is B16 Melanoma (intraperitoneal) in B6C3F1 mice

[1] = dose: 12.5 mg/kg/injection, vehicle: saline with Tween-80
[2] = dose: 25.0 mg/kg/injection, vehicle: saline with Tween-80
[3] = dose: 50.0 mg/kg/injection, vehicle: saline with Tween-80
[4] = dose: 100.0 mg/kg/injection, vehicle: saline with Tween-80
[5] = dose: 200.0 mg/kg/injection, vehicle: saline with Tween-80
[6] = dose: 25.0 mg/kg/injection, vehicle: distilled water + Tween-80
[7] = dose: 50.0 mg/kg/injection, vehicle: distilled water + Tween-80
[8] = dose: 100.0 mg/kg/injection, vehicle: distilled water + Tween-80
[9] = dose: 200.0 mg/kg/injection, vehicle: distilled water + Tween-80
[10] = dose: 400.0 mg/kg/injection, vehicle: saline with Tween-80
[11] = dose: 25.0 mg/kg/injection, vehicle: Klucel (hydroxypropylcellulose) (HPC)
[12] = dose: 50.0 mg/kg/injection, vehicle: Klucel (hydroxypropylcellulose) (HPC)
[13] = dose: 100.0 mg/kg/injection, vehicle: Klucel (hydroxypropylcellulose) (HPC)
[14] = dose: 200.0 mg/kg/injection, vehicle: Klucel (hydroxypropylcellulose) (HPC)
[15] = dose: 400.0 mg/kg/injection, vehicle: Klucel (hydroxypropylcellulose) (HPC)
[16] = dose: 12.5 mg/kg/injection, vehicle: Klucel (hydroxypropylcellulose) (HPC)
[17] = dose: 6.25 mg/kg/injection, vehicle: Klucel (hydroxypropylcellulose) (HPC)
[18] = dose: 6.25 mg/kg/injection, vehicle: saline with Tween-80
[19] = dose: 100.0 mg/kg/injection, vehicle: saline
[20] = dose: 200.0 mg/kg/injection, vehicle: saline
[21] = dose: 400.0 mg/kg/injection, vehicle: saline

With O=C1NC(O)c2ccccc2O1 (stereo not given) the T/C [1] was 99 % of control, the T/C (dose: 12.5 mg/kg/injection, vehicle: suspension in saline) was 101 % of control and the T/C [2] was 103 % of control. For the same molecule, the T/C (dose: 25.0 mg/kg/injection, vehicle: suspension in saline) was 103 % of control, the T/C [3] was 103 % of control and the T/C (dose: 50.0 mg/kg/injection, vehicle: suspension in saline) was 101 % of control. The T/C [4] was 106 % of control, the T/C (dose: 100.0 mg/kg/injection, vehicle: suspension in saline) was 98 % of control and the T/C [5] was 114 % of control. For the same molecule, the T/C (dose: 200.0 mg/kg/injection, vehicle: suspension in saline) was 100 % of control and the T/C (dose: 400.0 mg/kg/injection, vehicle: suspension in saline) was 95 % of control.
In the case of Nc1nc([Se]c2nc(N)nc3c2ncn3C2OC(CO)C(O)C2O)c2ncn(C3OC(CO)C(O)C3O)c2n1 (stereo not given), the T/C [6] was 108 % of control, the T/C [7] was 112 % of control and the T/C [8] was 89 % of control. For the same molecule, the T/C [9] was 87 % of control.
In the case of CCCCCCC(=O)CC(SCC)c1ccccc1Cl (stereo not given), the T/C [2] was 86 % of control, the T/C [4] was 93 % of control and the T/C [10] was 96 % of control.
c1ccc(CN2COc3c(ccc4c3OCN(Cc3ccccc3)C4)C2)cc1 was tested, and the T/C [11] was 111 % of control, the T/C [12] was 96 % of control and the T/C [13] was 95 % of control.
With CCCC(NC(=O)OCc1ccccc1)C(=O)NC(Cc1ccccc1)C(=O)O (stereo not given) (Cbz-[Nva]-Phe-OH; configuration not given here) the T/C [13] was 101 % of control, the T/C [14] was 104 % of control and the T/C [15] was 89 % of control.
Cc1cc(C)c(-c2cc(O)c(C)cc2O)c(C)c1 was tested, and the T/C [16] was 99 % of control, the T/C [11] was 101 % of control and the T/C [12] was 103 % of control. The T/C [13] was 99 % of control and the T/C [14] was 100 % of control.
In the case of CC(=O)[O][Pb]([O]C(C)=O)([c]1ccccc1)[c]1ccccc1, the T/C [17] was 88 % of control, the T/C [16] was 90 % of control and the T/C [11] was 88 % of control. For the same molecule, the T/C [12] was 93 % of control.
C=C(C)[C@@H]1CC[C@]2(C(=O)OC)CC[C@]3(C)[C@H](CC[C@@H]4[C@@]5(C)CC[C@H](O)C(C)(C)[C@@H]5CC[C@]43C)[C@@H]12 was tested, and the T/C [11] was 107 % of control and the T/C [12] was 86 % of control.
For CN(C)C(=O)SC1=C(c2c(Cl)cccc2Cl)C(=O)c2ccccc21, the T/C [11] was 98 % of control, the T/C [12] was 96 % of control and the T/C [13] was 101 % of control. For the same molecule, the T/C [14] was 101 % of control.
For CCn1c(-c2ccc(OC(C)=O)cc2)c(C)c2cc(OC(C)=O)ccc21, the T/C [11] was 104 % of control, the T/C [12] was 97 % of control and the T/C [13] was 97 % of control. For the same molecule, the T/C [14] was 87 % of control and the T/C [15] was 107 % of control.
In the case of O=[n+]1c2ccccc2n([O-])c2ccccc21.[Cl][Ni][Cl], the T/C (dose: 1.56 mg/kg/injection, vehicle: saline with Tween-80) was 103 % of control, the T/C (dose: 3.12 mg/kg/injection, vehicle: saline with Tween-80) was 95 % of control and the T/C [18] was 97 % of control. For the same molecule, the T/C [1] was 113 % of control and the T/C [2] was 91 % of control.
In the case of N#CN=[N+]([O-])c1ccc(C(=O)O)cc1, the T/C (dose: 1.87 mg/kg/injection, vehicle: Klucel (hydroxypropylcellulose) (HPC)) was 99 % of control and 101 % of control, the T/C (dose: 3.75 mg/kg/injection, vehicle: Klucel (hydroxypropylcellulose) (HPC)) was 96 % of control and 105 % of control and the T/C (dose: 7.5 mg/kg/injection, vehicle: Klucel (hydroxypropylcellulose) (HPC)) was 95 % of control and 102 % of control. For the same molecule, the T/C (dose: 15.0 mg/kg/injection, vehicle: Klucel (hydroxypropylcellulose) (HPC)) was 89 % of control and 91 % of control and the T/C (dose: 30.0 mg/kg/injection, vehicle: Klucel (hydroxypropylcellulose) (HPC)) was 90 % of control and 97 % of control.
With CCC(C)c1cnc(CC(C)C)c(=O)n1O (stereo not given) the T/C [3] was 98 % of control and the T/C [4] was 87 % of control.
In the case of Clc1ccc2nnnn2n1, the T/C [1] was 95 % of control, the T/C [2] was 105 % of control and the T/C [3] was 108 % of control and 116 % of control and 123 % of control. For the same molecule, the T/C [4] was 111 % of control and the T/C [5] was 167 % of control.
In the case of OCC1OC(n2cnc3c2NC=NC[C@H]3O)CC1O (stereo not given in full), the T/C (dose: 0.13 mg/kg/injection, vehicle: saline) was 84 % of control, the T/C (dose: 0.25 mg/kg/injection, vehicle: saline) was 78 % of control and the T/C (dose: 0.5 mg/kg/injection, vehicle: saline) was 96 % of control.
In the case of O=C(Nc1nncs1)c1cccs1, the T/C [1] was 110 % of control, the T/C [2] was 105 % of control and the T/C [3] was 101 % of control. For the same molecule, the T/C [4] was 108 % of control and 106 % of control and the T/C [5] was 121 % of control and 104 % of control.
Cc1ccc(C(=Nc2ccccc2)N=P(c2ccccc2)(c2ccccc2)c2ccccc2)cc1 was tested, and the T/C [1] was 94 % of control, the T/C [2] was 114 % of control and the T/C [3] was 99 % of control.
O=C1CSC(c2cccs2)N1c1nncs1 (stereo not given) was tested, and the T/C [11] was 102 % of control, the T/C [12] was 92 % of control and the T/C [13] was 92 % of control. The T/C [14] was 97 % of control.
With CSc1nc(N)nc2c1ncn2C1OC(CO)C(O)C1O (stereo not given) the T/C (dose: 25.0 mg/kg/injection, vehicle: saline) was 103 % of control, the T/C (dose: 50.0 mg/kg/injection, vehicle: saline) was 123 % of control and the T/C [19] was 112 % of control. The T/C [20] was 97 % of control and the T/C [21] was 101 % of control.
CC(C)(C)c1ccc(C(=O)N2CCOC23CCCCC3)cc1 was tested, and the T/C [3] was 91 % of control and 101 % of control, the T/C [4] was 98 % of control and 107 % of control and the T/C [5] was 94 % of control and 104 % of control. For the same molecule, the T/C [10] was 91 % of control and 104 % of control and the T/C (dose: 800.0 mg/kg/injection, vehicle: saline with Tween-80) was 92 % of control and 98 % of control.
CCOC(=O)c1ccc(NC(=O)Nc2nncs2)cc1 was tested, and the T/C (dose: 6.25 mg/kg/injection, vehicle: distilled water + Tween-80) was 100 % of control, the T/C (dose: 12.5 mg/kg/injection, vehicle: distilled water + Tween-80) was 110 % of control and the T/C [6] was 115 % of control. For the same molecule, the T/C [7] was 121 % of control, the T/C [8] was 121 % of control and the T/C [9] was 105 % of control.
In the case of C=C1C(=O)O[C@@H]2[C@H]3O[C@]3(C)CCC=C(C)CC[C@@H]12, the T/C [17] was 91 % of control, the T/C [16] was 97 % of control and the T/C [11] was 98 % of control. For the same molecule, the T/C [12] was 108 % of control.
In the case of COCCCNC1=C(C#N)C(=O)NC(c2cccc([N+](=O)[O-])c2)S1 (stereo not given), the T/C (dose: 3.13 mg/kg/injection, vehicle: saline with Tween-80) was 112 % of control and 98 % of control, the T/C [18] was 91 % of control and 96 % of control and the T/C [3] was 94 % of control and 101 % of control (2×). For the same molecule, the T/C [4] was 111 % of control and 98 % of control, the T/C [5] was 111 % of control and the T/C [10] was 87 % of control.
For CC(/C=C/C1OC(=O)C=CC1C)=C\C(C)C/C=C/C(C)=C/C(C)C(=O)C(C)C(O)C(C)C/C(C)=C/C(=O)O (stereo not given), the T/C (dose: 12.5 micrograms/kg/injection, vehicle: saline + alcohol) was 170 % of control and 184 % of control and the T/C (dose: 25.0 micrograms/kg/injection, vehicle: saline + alcohol) was 176 % of control and 224 % of control.
In the case of C=CCSc1ncnc2c1ncn2C1OC(CO)C(O)C1O (stereo not given), the T/C (dose: 37.5 mg/kg/injection, vehicle: saline with Tween-80) was 102 % of control, the T/C (dose: 75.0 mg/kg/injection, vehicle: saline with Tween-80) was 90 % of control and the T/C (dose: 150.0 mg/kg/injection, vehicle: saline with Tween-80) was 97 % of control.
With CC(C)C(NC(=O)C(Cc1cnc[nH]1)NC(=O)OCc1ccccc1)C(=O)O (stereo not drawn) (Cbz-His-Val-OH; configuration not given here) the T/C [13] was 94 % of control, the T/C [14] was 102 % of control and the T/C [15] was 102 % of control.
With CCC(C)C(=O)O[C@H]1C(=O)O[C@@H]2C[C@H]3C(C)=CC(=O)[C@@H](O)[C@]3(C)[C@H]3[C@@H](O)[C@H](O)[C@@]4(C)OC[C@]32[C@@H]14 (stereo not given in full) the T/C (dose: 1.0 mg/kg/injection, vehicle: saline + alcohol) was 160 % of control.
S=C(S)NN1CCOCC1 was tested, and the T/C [19] was 98 % of control, the T/C [20] was 99 % of control and the T/C [21] was 96 % of control.
For COC(=O)c1ccc(O)cc1, the T/C [1] was 92 % of control, the T/C [2] was 103 % of control and the T/C [3] was 106 % of control. For the same molecule, the T/C [4] was 117 % of control, the T/C [5] was 101 % of control and the T/C [10] was 96 % of control.
